In assay [1] the test system is HUVEC. The assay can be described thus: Pro-angiogenic activity in HUVEC assessed as increase in cell proliferation at 2500 ng/ml after 96 hrs by DAPI staining-based spectrofluorometric analysis relative to control. Format: functional, Homo sapiens.
Assay [2] concerns HUVEC. Briefly: Pro-angiogenic activity in HUVEC assessed as increase in cell proliferation at 2500 ng/ml after 24 to 72 hrs by DAPI staining-based spectrofluorometric analysis relative to control. Format: functional, Homo sapiens.
The subject of assay [3] is HUVEC. Briefly: Pro-angiogenic activity in HUVEC assessed as increase in cell proliferation after 96 hrs by DAPI staining-based spectrofluorometric analysis. It is filed as functional. The settings on record: Homo sapiens.
Assay [4] deals with HUVEC. Briefly: Effect on cell morphology in HUVEC at 1 to 2500 ng/ml after 24 to 96 hrs by DAPI staining-based spectrofluorometric analysis. It is filed as functional. The settings on record: Homo sapiens.
The subject of assay [5] is HUVEC. The assay can be described thus: Pro-angiogenic activity in HUVEC assessed as increase in meshes formation after 22 hrs by phase-contrast image analysis. Format: functional, cell-based. The settings on record: Homo sapiens.
Assay [6] concerns HUVEC. Briefly: Pro-angiogenic activity in HUVEC assessed as increase in meshes formation at 0.1 to 10 ng/ml after 22 hrs by phase-contrast image analysis. It is filed as functional, cell-based. The settings on record: Homo sapiens.
Assay [7] relates to HUVEC. The assay can be described thus: Pro-angiogenic activity in HUVEC assessed as increase in tubular network formation at 0.1 ng/ml after 22 hrs by phase-contrast image analysis. Format: functional, cell-based. The settings on record: Homo sapiens.
Assay [8] relates to HUVEC. Briefly: Pro-angiogenic activity in HUVEC assessed as increase in tubular network formation at 0.1 ng/ml preincubated for 30 mins followed by ZM 323881 HCl addition and measured after 22 hrs by phase-contrast image analysis. It is filed as functional, cell-based. The settings on record: Homo sapiens.
For assay [9], the system named is HUVEC. The assay can be described thus: […] activity in HUVEC assessed as wound closure at 100 ng/ml after 24 hrs by phase-contrast microscopic analysis. The settings on record: Homo sapiens. It is filed as functional, cell-based.

Structures are written as SMILES. ≈ marks a conversion by molar mass, not a printed value. Calls of active or inactive are those of the source. No cut-off for these calls is given here. A value given as a limit tells only on which side of the number the result lay.

For the compound `O=C(OCC1=C[C@@H](O)[C@@H]2C=CO[C@@H](O[C@@H]3O[C@H](CO)[C@@H](O)[C@H](O)[C@H]3O)[C@H]12)c1ccc(O)cc1` [AGNUSIDE], the values for the Activity result with HUVEC [1], with HUVEC [2] and in the assay on HUVEC [5] were “<=56%”, 20 - 30% and “Dose-dependent effect”, respectively. In addition, the half-maximal effective concentration (EC50) in the assay with HUVEC [3] turned out to be 1.38 µg/mL (≈ 2.95 µM). The outcome in the assay with HUVEC [4] and in the assay on HUVEC [6] was inactive. Also, the outcome with HUVEC [7], in the assay on HUVEC [8] and with HUVEC [9] was Active.
